# Like-named read-outs stand apart in the source and are kept apart here.
# Assays:
# [1] = cited from earlier work
# [2] = cited from earlier work; remark: listed apart in the source
# [3] = system: hemolytic plaque forming cells in the spleens of mice; details: cited from earlier work
# [4] = system: thymidylate synthase; details: colon cancer cells; cited from earlier work
# [5] = system: thymidine kinase; details: colon cancer cells; cited from earlier work
# [6] = cited from earlier work; remark: listed apart in the source
# [7] = system: NB4, HL60, Jurkat leukemic cells; assay: Viability of leukemic cells (PI staining, FACS); type: cell-based, human; details: 24 hours
# Procedure: (§1) In another example, the effect of CXCR4 antagonists on the survival of NB4, HL60, Jurkat leukemic cells and HT29 colon cancer and prostate tumor cells was examined.
# (§2) Following the incubation, the cells were stained with propidium iodide (PI) (Sigma, St. Louis, Mo.) and percent of viable PI-negative cells in culture was determined by FACScalibur analysis (Becton Dickinson Immunocytometry Systems), using CellQuest software.
# as §2
# [8] = system: HT29 colon cancer cells; assay: Viability of HT29 tumor cells (PI staining); type: cell-based; details: 24-hour exposure
# Procedure: as §1, §2, §2
# [9] = system: mammary carcinoma of mice; details: intraperitoneal, 75 mg/kg; cited from earlier work
# [10] = system: murine melanoma; details: 5 mg/kg; cited from earlier work
# [11] = system: mice; details: cited from earlier work
# [12] = system: central stimulation in mice and rats; details: oral administration; cited from earlier work
compound,measurement,setting,value
Cc1ccc(C(C)C)cc1O [Carvacrol],half life,[1],about 1.29 hours
CC[C@H](CC[C@@H](C)[C@H]1CC[C@H]2[C@@H]3CC=C4C[C@@H](O)CC[C@]4(C)[C@H]3CC[C@]12C)C(C)C [β-sitosterol],half life,[1],about 0.966 hours
O=C1c2cccc(O)c2C(=O)c2c(O)cc(CO)cc21 [Aloe-emodin],half-life,[1],about 78 min
O=C(O)c1cc(O)c2c(c1)C(=O)c1cccc(O[C@@H]3O[C@H](CO)[C@@H](O)[C@H](O)[C@H]3O)c1C2=O [Rhein-8-glucoside],ED50 (oral purgative),[2],20.0 mg/kg
CC1=CCC(C(C)(C)O)CC1 (stereo not drawn) [Alpha-terpineol],half life,[1],about 1.245 hours
O=C(O)C(=O)OC[C@H]1O[C@@H](Oc2cccc3c2C(=O)c2c(O)cc(C(=O)O)cc2[C@@H]3[C@@H]2c3cc(C(=O)O)cc(O)c3C(=O)c3c(O[C@@H]4O[C@H](CO)[C@@H](O)[C@H](O)[C@H]4O)cccc32)[C@H](O)[C@@H](O)[C@@H]1O [Sennoside F],ED50 (oral purgative),[2],16.1 mg/kg
COc1cc(O)c2c(c1)C(=O)c1cc(C)cc(O)c1C2=O [Physcion],ED50 (oral purgative),[2],>500 mg/kg
"O=P1(N(CCCl)CCCl)NCCCO1 (centres unmarked) [cyclophosphamide, reference compound]",suppression of hemolytic plaque forming cells,[3]; intraperitoneal dose of 30 mg/kg,52.5%
COc1ccc(/C=C/c2cc(O)cc(O[C@@H]3O[C@H](CO)[C@@H](O)[C@H](O)[C@H]3O)c2)cc1O [Rhapontin],half life,[1],about 23.5 minutes
CC(C)=CCC/C(C)=C/CO [Geraniol],reduction of thymidylate synthase expression,[4],2 fold
same,reduction of thymidine kinase expression,[5],2 fold
CCC(=O)O[C@]1(C(=O)CCl)[C@@H](C)C[C@H]2[C@@H]3CCC4=CC(=O)C=C[C@]4(C)[C@@]3(F)[C@@H](O)C[C@@]21C [Clobetasol propionate],solubility in water,[6],insoluble in water
O=C(O)c1cc(O)c2c(c1)[C@H]([C@H]1c3cc(CO)cc(O)c3C(=O)c3c(O[C@@H]4O[C@H](CO)[C@@H](O)[C@H](O)[C@H]4O)cccc31)c1cccc(O[C@@H]3O[C@H](CO)[C@@H](O)[C@H](O)[C@H]3O)c1C2=O [Sennoside C],ED50 (oral purgative),[2],13.3 mg/kg
Cc1cc(O)c2c(c1)C(=O)c1cc(O)cc(O)c1C2=O [Emodin],concentrations inhibiting the growth of leukemic cells,[7],more than 5 microgram/ml
same,effect on HT29 tumor cells,[8],partial however significant effect
same,ED50 (oral purgative),[2],>500 mg/kg
same,inhibition against mammary carcinoma,[9],45%
same,inhibition rate against murine melanoma,[10],73%
same,LD50,[11],0.56 g/k″g
same,half-life,[1],approximately 227 min
OCC1=C[C@@H](O)[C@@H]2C=CO[C@@H](O[C@@H]3O[C@H](CO)[C@@H](O)[C@H](O)[C@H]3O)[C@H]12 [Aucubin],half life,[1],about 42.5 minutes
jionoside B,suppression of hemolytic plaque forming cells,[3]; oral dose of 100 mg/kg,36%
"C[C@H]1O[C@@H](O[C@H]2[C@@H](O)C[C@H](O[C@H]3[C@@H](O)C[C@H](O[C@H]4CC[C@@]5(C)[C@H](CC[C@@H]6[C@@H]5C[C@@H](O)[C@]5(C)[C@@H](C7=CC(=O)OC7)CC[C@]65O)C4)O[C@@H]3C)O[C@@H]2C)C[C@H](O)[C@@H]1O [Digoxin, reference compound]",effect on HT29 tumor cells,[8],partial however significant effect
same,half life,[1],around 36 hours
O=C(O)C(=O)OC[C@H]1O[C@@H](Oc2cccc3c2C(=O)c2c(O)cc(C(=O)O)cc2[C@@H]3[C@H]2c3cc(C(=O)O)cc(O)c3C(=O)c3c(O[C@@H]4O[C@H](CO)[C@@H](O)[C@H](O)[C@H]4O)cccc32)[C@H](O)[C@@H](O)[C@@H]1O [Sennoside E],ED50 (oral purgative),[2],13.5 mg/kg
O=c1cc(-c2ccc(O)c(O)c2)oc2cc(O)cc(O)c12 [Luteolin],half life,[1],about 1.2 hours
O=C(O)c1cc(O)c2c(c1)C(=O)c1cccc(O)c1C2=O [Rhein],half-life,[1],about 205 min
Emodin monoglucoside,ED50 (oral purgative),[2],103.6 mg/kg
O=C(O)c1cc(O)c2c(c1)[C@@H]([C@H]1c3cc(C(=O)O)cc(O)c3C(=O)c3c(O[C@@H]4O[C@H](CO)[C@@H](O)[C@H](O)[C@H]4O)cccc31)c1cccc(O[C@@H]3O[C@H](CO)[C@@H](O)[C@H](O)[C@H]3O)c1C2=O [Sennoside B],ED50 (oral purgative),[2],13.9 mg/kg
O=C(O)c1cc(O)c2c(c1)[C@H]([C@H]1c3cc(C(=O)O)cc(O)c3C(=O)c3c(O[C@@H]4O[C@H](CO)[C@@H](O)[C@H](O)[C@H]4O)cccc31)c1cccc(O[C@@H]3O[C@H](CO)[C@@H](O)[C@H](O)[C@H]3O)c1C2=O [Sennoside A],ED50 (oral purgative),[2],13.5 mg/kg
O=C(/C=C/c1ccc(O)c(O)c1)O[C@@H]1C[C@](O)(C(=O)O)C[C@@H](O)[C@H]1O [chlorogenic acid],potency of central stimulation relative to caffeine,[12],1/6
O=C1c2cc(CO)cc(O)c2C(=O)c2c(OC3OC(CO)C(O)C(O)C3O)cccc21 (centres unmarked) [Aloe-emodin-8-glycoside],ED50 (oral purgative),[2],71.6 mg/kg
C[C@@H]1O[C@@H](O[C@@H]2[C@@H](O)[C@H](OCCc3ccc(O)c(O)c3)O[C@H](CO)[C@H]2OC(=O)/C=C/c2ccc(O)c(O)c2)[C@H](O)[C@H](O)[C@H]1O [acetoside],suppression of hemolytic plaque forming cells,[3]; oral dose of 100 mg/kg,18%
O=C(O)c1cc(O)c2c(c1)[C@H]([C@@H]1c3cc(CO)cc(O)c3C(=O)c3c(O[C@@H]4O[C@H](CO)[C@@H](O)[C@H](O)[C@H]4O)cccc31)c1cccc(O[C@@H]3O[C@H](CO)[C@@H](O)[C@H](O)[C@H]3O)c1C2=O [Sennoside D],ED50 (oral purgative),[2],13.8 mg/kg
COc1cc(C(=O)O)ccc1O [Vanillic acid],half life,[1],about 10.552 hours
